Reference: the supplement of paper PMC10627819

Tests used:
B. subtilis 168 [1] = assay: fitness (endpoint OD595 vs no drug) (fraction); higher = more growth
Outline: (§1)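 Fitness was defined as the optical density at the transition into stationary phase relative to the robust mean of no-drug control wells. Values were capped at 1. Cultures were started at OD595 0.01 in 384-well plates (30 µl, or 55 µl for S. pneumoniae) in TSB, LB Lennox or CY at 37 °C. OD595 was recorded every 30 min over 14 h, with the first reading subtracted as background.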

B. subtilis 168 [2] = assay: Bliss interaction score (quartile over a dose matrix) (fitness difference); higher = more antagonism (negative = synergy)
Outline: (§2)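 Growth in each well was taken as OD595 at entry into stationary phase. Dividing by the plate's robust no-drug mean and capping at 1 gave fitness, and single-drug fitness was inferred from the combination data. The Bliss score, observed minus product-expected fitness, is summarised by quartiles over technical, biological and donor/recipient replicates.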

S. aureus DSM 20231 = assay: as above
Outline: as §2

S. aureus Newman = assay: as above
Outline: as §2

S. pneumoniae D39V [3] = assay: as above
Outline: as §2

S. pneumoniae D39V [4] = assay: fitness (endpoint OD595 vs no drug) (fraction); higher = more growth
Outline: as §1
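Throughout, for Bliss interaction score (quartile over a dose matrix): first quartile when negative (synergy) and third quartile when positive (antagonism).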

CO/N=C(\C(=O)N[C@@H]1C(=O)N2C(C(=O)O)=C(COC(N)=O)CS[C@H]12)c1ccco1 [Cefuroxime] + CC(=O)NC[C@H]1CN(c2ccc(N3CCOCC3)c(F)c2)C(=O)O1 [Linezolid]
fitness, B. subtilis 168 [1]
Details | first compound 0.04875 µg/mL | first compound 0.0975 µg/mL | first compound 0.195 µg/mL
partner 0.125 µg/mL | 0.532 | 0.526 | 0.423
partner 0.25 µg/mL | 0.293 | 0.261 | 0.0774
partner 0.5 µg/mL | 0.103 | 0.0891 | 0.0749

fitness, B. subtilis 168 [1], one replicate
Details | first compound 0.195 µg/mL | first compound 0.39 µg/mL | first compound 0.78 µg/mL | first compound 1.562 µg/mL | first compound 3.125 µg/mL | first compound 6.25 µg/mL
partner 0.0625 µg/mL | 0.379 | 0.312 | 0.235 | – | – | –
partner 0.125 µg/mL | – | 0.227 | 0.14 | 0.331 | 0.384 | 0.308
partner 0.25 µg/mL | – | 0.0397 | 0.0222 | 0.0445 | 0.0527 | 0.0345
partner 0.5 µg/mL | – | – | – | 0.0242 | 0.0246 | 0.0074

Details | Bliss interaction score
B. subtilis 168 [2] | 0.139
S. aureus DSM 20231 | -0.208
S. aureus Newman | 0.0749
S. pneumoniae D39V [3] | 0.079

O=C(O)c1cn(C2CC2)c2cc(N3CCNCC3)c(F)cc2c1=O [Ciprofloxacin] + CC[C@H]1OC(=O)[C@H](C)[C@@H](O[C@H]2C[C@@](C)(OC)[C@@H](O)[C@H](C)O2)[C@H](C)[C@@H](O[C@@H]2O[C@H](C)C[C@H](N(C)C)[C@H]2O)[C@](C)(OC)C[C@@H](C)C(=O)[C@H](C)[C@@H](O)[C@]1(C)O [Clarithromycin]
fitness, S. pneumoniae D39V [4], one replicate
Details | partner 0.007812 µg/mL | partner 0.01562 µg/mL | partner 0.03125 µg/mL | partner 0.0625 µg/mL | partner 0.125 µg/mL | partner 0.25 µg/mL
first compound 0.125 µg/mL | 0.839 | 0.844 | 0.627 | – | – | –
first compound 0.25 µg/mL | 0.742 | 0.746 | 0.536 | 0.349 | 0.17 | 0.0141
first compound 0.5 µg/mL | 0.472 | 0.524 | 0.398 | – | – | –

fitness, S. pneumoniae D39V [4]
Details | partner 0.0625 µg/mL | partner 0.07 µg/mL | partner 0.125 µg/mL | partner 0.14 µg/mL | partner 0.25 µg/mL | partner 0.28 µg/mL
first compound 0.125 µg/mL | 0.473 | 0.151 | 0.246 | 0.0833 | 0.0576 | 0.0594
first compound 0.25 µg/mL | – | 0.166 | – | 0.0864 | – | 0.0284
first compound 0.5 µg/mL | 0.374 | 0.127 | 0.191 | 0.0639 | 0.0761 | 0.0531

Details | Bliss interaction score
B. subtilis 168 [2] | 0.183
S. aureus DSM 20231 | 0.0952
S. aureus Newman | 0.0708
S. pneumoniae D39V [3] | -0.0773

O=C(O)c1cn(C2CC2)c2cc(N3CCNCC3)c(F)cc2c1=O [Ciprofloxacin] + O=C1CN(/N=C/c2ccc([N+](=O)[O-])o2)C(=O)N1 [Nitrofurantoin]
fitness, S. pneumoniae D39V [4]
Details | partner 1.285 µg/mL | partner 2 µg/mL | partner 2.57 µg/mL | partner 4 µg/mL | partner 8 µg/mL
first compound 0.125 µg/mL | 0.921 | 0.914 | 0.932 | 0.906 | 0.692
first compound 0.25 µg/mL | 0.895 | – | 0.903 | – | –
first compound 0.5 µg/mL | 0.704 | – | 0.72 | – | 0.437

fitness, S. pneumoniae D39V [4], one replicate
Details | partner 2 µg/mL | partner 4 µg/mL | partner 5.14 µg/mL | partner 8 µg/mL
first compound 0.125 µg/mL | – | – | 0.877 | –
first compound 0.25 µg/mL | 0.731 | 0.679 | 0.879 | 0.56
first compound 0.5 µg/mL | – | – | 0.627 | –

Details | Bliss interaction score
B. subtilis 168 [2] | 0.129
S. aureus DSM 20231 | 0.0292
S. aureus Newman | -0.0569
S. pneumoniae D39V [3] | 0.106

Cc1ncc([N+](=O)[O-])n1CCO [Metronidazole] + O=C1CN(/N=C/c2ccc([N+](=O)[O-])o2)C(=O)N1 [Nitrofurantoin]
fitness, S. pneumoniae D39V [4]
Details | first compound 1.073 µg/mL | first compound 1.25 µg/mL | first compound 2.145 µg/mL | first compound 2.5 µg/mL | first compound 4.29 µg/mL | first compound 5 µg/mL
partner 1.285 µg/mL | – | 0.954 | – | 0.983 | – | 0.948
partner 2 µg/mL | 0.93 | – | 0.945 | – | 0.89 | –
partner 2.57 µg/mL | – | 0.95 | – | 0.948 | – | 0.965
partner 4 µg/mL | 0.929 | – | 0.919 | – | 0.902 | –
partner 8 µg/mL | 0.774 | – | 0.805 | – | 0.751 | –

S. pneumoniae D39V [4], partner 5.14 µg/mL, one replicate
Details | fitness
first compound 1.25 µg/mL | 0.936
first compound 2.5 µg/mL | 0.973
first compound 5 µg/mL | 0.989

Details | Bliss interaction score
B. subtilis 168 [2] | 0.0755
S. aureus DSM 20231 | 0.0482
S. aureus Newman | -0.0503
S. pneumoniae D39V [3] | 0.0483

O=C(O)c1cn(C2CC2)c2cc(N3CCNCC3)c(F)cc2c1=O [Ciprofloxacin] + Clc1ccc(COC(Cn2ccnc2)c2ccc(Cl)cc2Cl)c(Cl)c1 [Miconazole]
fitness, S. pneumoniae D39V [4]
Details | partner 1.073 µg/mL | partner 1.25 µg/mL | partner 2.145 µg/mL | partner 2.5 µg/mL | partner 4.29 µg/mL | partner 5 µg/mL
first compound 0.125 µg/mL | 0.987 | 0.939 | 0.966 | 0.925 | 0.926 | 0.908
first compound 0.25 µg/mL | 0.964 | – | 0.965 | – | 0.864 | –
first compound 0.5 µg/mL | 0.761 | 0.679 | 0.76 | – | 0.821 | 0.646

S. pneumoniae D39V [4], first compound 0.25 µg/mL, one replicate
Details | fitness
partner 1.25 µg/mL | 0.821
partner 2.5 µg/mL | 0.697
partner 5 µg/mL | 0.721

Details | Bliss interaction score
B. subtilis 168 [2] | -0.0762
S. aureus DSM 20231 | 0.0295
S. aureus Newman | 0.0815
S. pneumoniae D39V [3] | 0.0741

C[C@H]1c2cccc(O)c2C(=O)C2=C(O)[C@]3(O)C(=O)C(C(N)=O)=C(O)[C@@H](N(C)C)[C@@H]3[C@@H](O)[C@@H]21 [Doxycycline] + O=C1CN(/N=C/c2ccc([N+](=O)[O-])o2)C(=O)N1 [Nitrofurantoin]
fitness, S. pneumoniae D39V [4], one replicate
Details | first compound 0.003875 µg/mL | first compound 0.00775 µg/mL | first compound 0.0155 µg/mL | first compound 0.031 µg/mL | first compound 0.062 µg/mL
partner 2 µg/mL | ≥ 1 | 0.943 | – | 0.77 | 0.68
partner 4 µg/mL | 0.993 | 0.953 | – | 0.809 | 0.681
partner 5.14 µg/mL | – | – | 0.875 | 0.894 | 0.828
partner 8 µg/mL | 0.766 | 0.824 | – | 0.8 | 0.741

fitness, S. pneumoniae D39V [4]
Details | partner 1.285 µg/mL | partner 2 µg/mL | partner 2.57 µg/mL | partner 4 µg/mL | partner 8 µg/mL
first compound 0.0155 µg/mL | 0.899 | 0.9 | 0.944 | 0.898 | 0.877
first compound 0.031 µg/mL | 0.896 | – | 0.92 | – | –
first compound 0.062 µg/mL | 0.837 | – | 0.869 | – | –

Details | Bliss interaction score
B. subtilis 168 [2] | 0.0854
S. aureus DSM 20231 | -0.0256
S. aureus Newman | -0.0329
S. pneumoniae D39V [3] | 0.0703

C[C@H]1c2cccc(O)c2C(=O)C2=C(O)[C@]3(O)C(=O)C(C(N)=O)=C(O)[C@@H](N(C)C)[C@@H]3[C@@H](O)[C@@H]21 [Doxycycline] + C/C(=C\C(=O)OCCCCCCCCC(=O)O)C[C@@H]1OC[C@H](C[C@@H]2O[C@H]2[C@@H](C)[C@H](C)O)[C@@H](O)[C@H]1O [Pseudomonic acid]
fitness, S. pneumoniae D39V [4], one replicate
Details | partner 0.03 µg/mL | partner 0.06 µg/mL | partner 0.12 µg/mL
first compound 0.003875 µg/mL | 0.973 | 0.887 | 0.585
first compound 0.00775 µg/mL | 0.943 | 0.839 | 0.614

fitness, S. pneumoniae D39V [4]
Details | first compound 0.0155 µg/mL | first compound 0.031 µg/mL | first compound 0.062 µg/mL
partner 0.03 µg/mL | 0.993 | 0.937 | 0.821
partner 0.06 µg/mL | 0.878 | 0.845 | 0.857
partner 0.12 µg/mL | 0.604 | 0.608 | 0.562

Details | Bliss interaction score
B. subtilis 168 [2] | -0.0363
S. aureus DSM 20231 | -0.0104
S. aureus Newman | -0.0168
S. pneumoniae D39V [3] | 0.0875

CO/N=C(\C(=O)N[C@@H]1C(=O)N2C(C(=O)O)=C(COC(C)=O)CS[C@H]12)c1csc(N)n1 [Cefotaxime] + Clc1ccc(COC(Cn2ccnc2)c2ccc(Cl)cc2Cl)c(Cl)c1 [Miconazole]
fitness, S. pneumoniae D39V [4]
Details | partner 1.073 µg/mL | partner 1.25 µg/mL | partner 2.145 µg/mL | partner 2.5 µg/mL | partner 4.29 µg/mL | partner 5 µg/mL
first compound 0.0018 µg/mL | ≥ 1 | 0.919 | 0.967 | 0.96 | 0.94 | 0.936
first compound 0.0035 µg/mL | ≥ 1 | 0.866 | 0.907 | 0.9 | 0.866 | 0.911
first compound 0.007 µg/mL | 0.797 | 0.749 | – | 0.789 | 0.613 | 0.796

Details | Bliss interaction score
B. subtilis 168 [2] | 0.104
S. aureus DSM 20231 | -0.0534
S. aureus Newman | 0.0393
S. pneumoniae D39V [3] | -0.0628

O=C(O)c1cn(C2CC2)c2cc(N3CCNCC3)c(F)cc2c1=O [Ciprofloxacin] + CO[C@H]1/C=C/O[C@@]2(C)Oc3c(C)c(O)c4c(O)c(c(/C=N/N5CCN(C)CC5)c(O)c4c3C2=O)NC(=O)/C(C)=C\C=C\[C@H](C)[C@H](O)[C@@H](C)[C@@H](O)[C@@H](C)[C@H](OC(C)=O)[C@@H]1C [Rifampicin]
fitness, S. pneumoniae D39V [4]
Details | first compound 0.125 µg/mL | first compound 0.25 µg/mL | first compound 0.5 µg/mL
partner 0.025 µg/mL | 0.954 | 0.84 | 0.795
partner 0.05 µg/mL | – | – | 0.688

S. pneumoniae D39V [4], partner 0.2 µg/mL, one replicate
Details | fitness
first compound 0.125 µg/mL | 0
first compound 0.25 µg/mL | 0
first compound 0.5 µg/mL | 0

Details | Bliss interaction score
B. subtilis 168 [2] | 0.162
S. aureus DSM 20231 | -0.0712
S. aureus Newman | 0.0614
S. pneumoniae D39V [3] | 0.0532
